According to patent publication US11596639B2, “Substituted indole Mcl-1 inhibitors” (Vanderbilt University, priority 2016, dated 2023):
Where two headings read alike, the source gives them in different places.

Legend:
[1] = system: H929 human cancer cell lines; test: Cellular viability / proliferation (Cell TiterGlo, 72 h); assay type: cell-based
Outline: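 Plating is at 1,000 cells/well in 10% FBS medium; after 24 h, compound is added as a 2-fold series starting at 50 μM with under 1% DMSO.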

Mcl-1 = Mcl-1 (Homo sapiens (Human), UniProt Q07820); test: Fluorescence polarization anisotropy (FPA) competition assay, FITC-Bak or FITC-Bim BH3 peptide; assay type: binding; details: read-out: Ki for Inhibition of Mcl-1 by FPA assay
[2] = Homo sapiens, NCI-H929, 72 h, read-out: GI50 on cellular proliferation of H929 human cancer cell lines, H929 cells, 72 h, Cell TiterGlo, 10% FBS

Chain of Mcl-1 (Q07820 172-327): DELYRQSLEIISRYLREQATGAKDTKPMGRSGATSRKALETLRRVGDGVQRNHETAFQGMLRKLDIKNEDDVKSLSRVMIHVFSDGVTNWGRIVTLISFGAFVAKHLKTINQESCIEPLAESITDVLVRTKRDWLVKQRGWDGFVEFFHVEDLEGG

Row | Structure (SMILES) | GI50 [1, 2] | Ki (Mcl-1) | GI50 ([1]; H929 cells, 72 h, Cell TiterGlo, 10% FBS, read-out: GI50 on cellular proliferation of H929 human cancer cell lines)
1 | Cc1cc(OCCCc2c3n(c4c(-c5c(C)nn(C)c5C)c(Cl)ccc24)[C@H](C)CN(c2cn(C)c4ccc(C(N)=O)cc24)C3=O)cc(C)c1Cl [Example 221, 3-[(4R)-7-chloro-10-[3-(4-chloro-3,5-dimethyl-phenoxy)propyl]-4-methyl-1-oxo-6-(1,3,5-trimethylpyrazol-4-yl)-3,4-dihydropyrazino[1,2-a]indol-2-yl]-1-methyl-indole-5-carboxamide] | 450 nM | 2.5 nM | –
2 | Cc1cc(OCCCc2c3n(c4c(-c5c(C)nn(C)c5C)c(Cl)ccc24)[C@H](C)CN(c2cccc4cc(C(=O)O)n(CC5CCCO5)c24)C3=O)cc(C)c1Cl (stereo partly drawn) [Example 326, 7-((R)-7-Chloro-10-(3-(4-chloro-3,5-dimethylphenoxy)propyl)-4-methyl-1-oxo-6-(1,3,5-trimethyl-1H-pyrazol-4-yl)-3,4-dihydropyrazino[1,2-a]indol-2(1H)-yl)-1-((tetrahydrofuran-2-yl)methyl)-1H-indole-2-carboxylic acid] | 590 nM | < 1 nM | –
3 | Cc1cc(OCCCc2c3n(c4c(-c5c(C)nn(C)c5C)c(Cl)ccc24)[C@H](C)CN(c2ccc4c(C(=O)O)cn(C)c4c2)C3=O)cc(C)c1Cl [Example 79, (R)-6-(7-Chloro-10-(3-(4-chloro-3,5-dimethylphenoxy)propyl)-4-methyl-1-oxo-6-(1,3,5-trimethyl-1H-pyrazol-4-yl)-3,4-dihydropyrazino[1,2-a]indol-2(1H)-yl)-1-methyl-1H-indole-3-carboxylic acid] | 1500 nM | < 1 nM | –
4 | CCn1ncc2c(C(=O)O)cc(N3CCCn4c(c(CCCOc5cc(C)c(Cl)c(C)c5)c5ccc(Cl)c(-c6c(C)nn(C)c6C)c54)C3=O)cc21 [Example 39, 6-[8-chloro-11-[3-(4-chloro-3,5-dimethyl-phenoxy)propyl]-1-oxo-7-(1,3,5-trimethylpyrazol-4-yl)-4,5-dihydro-3H-[1,4]diazepino[1,2-a]indol-2-yl]-1-ethyl-indazole-4-carboxylic acid] | 920 nM | 1.1 nM | –
5 | Cc1cc(OCCCc2c3n(c4c(-c5c(C)nn(C)c5C)c(Cl)ccc24)[C@H](C)CN(c2cn(C)c4ccc(-c5ncn(CC(C)C)n5)cc24)C3=O)cc(C)c1Cl [Example 454, (R)-7-Chloro-10-(3-(4-chloro-3,5-dimethylphenoxy)propyl)-2-(5-(1-isobutyl-1H-1,2,4-triazol-3-yl)-1-methyl-1H-indol-3-yl)-4-methyl-6-(1,3,5-trimethyl-1H-pyrazol-4-yl)-3,4-dihydropyrazino[1,2-a]indol-1(2H)-one] | 2100 nM | 3.5 nM | –
6 | Cc1cc(OCCCc2c3n(c4c(-c5c(C)nn(C)c5C)c(Cl)ccc24)[C@H](C)CN(c2cccc4cc(C(=O)O)n(CC5COC5)c24)C3=O)cc(C)c1Cl [Example 383, (R)-7-(7-Chloro-10-(3-(4-chloro-3,5-dimethylphenoxy)propyl)-4-methyl-1-oxo-6-(1,3,5-trimethyl-1H-pyrazol-4-yl)-3,4-dihydropyrazino[1,2-a]indol-2(1H)-yl)-1-(oxetan-3-ylmethyl)-1H-indole-2-carboxylic acid] | 1500 nM | 2.6 nM | –
7 | Cc1cc(OCCCc2c3n(c4c(-c5c(C)nn(C)c5C)c(Cl)ccc24)[C@H](C)CN(c2cn(C)c4ccccc24)C3=O)cc(C)c1Cl [Example 288, (R)-7-chloro-10-(3-(4-chloro-3,5-dimethylphenoxy)propyl)-4-methyl-2-(1-methyl-1H-indol-3-yl)-6-(1,3,5-trimethyl-1H-pyrazol-4-yl)-3,4-dihydropyrazino[1,2-a]indol-1(2H)-one] | 8400 nM | 3 nM | –
8 | Cc1cc(OCCCc2c3n(c4c(-c5c(C)nn(C)c5C)c(Cl)ccc24)CCCN(c2cc(C(=O)O)cc4c2ccn4CCN(C)C)C3=O)cc(C)c1Cl [Example 11, 4-(8-Chloro-11-(3-(4-chloro-3,5-dimethylphenoxy)propyl)-1-oxo-7-(1,3,5-trimethyl-1H-pyrazol-4-yl)-4,5-dihydro-1H-[1,4]diazepino[1,2-a]indol-2(3H)-yl)-1-(2-(dimethylamino)ethyl)-1H-indole-6-carboxylic acid] | 9900 nM | 4 nM | –
9 | Cc1cc(OCCCc2c3n(c4c(-c5c(C)nn(C)c5C)c(Cl)ccc24)[C@H](C)CN(c2cn(C)c4cc(S(C)(=O)=O)ccc24)C3=O)cc(C)c1Cl [Example 222, (R)-7-chloro-10-(3-(4-chloro-3,5-dimethylphenoxy)propyl)-4-methyl-2-(1-methyl-6-(methylsulfonyl)-1H-indol-3-yl)-6-(1,3,5-trimethyl-1H-pyrazol-4-yl)-3,4-dihydropyrazino[1,2-a]indol-1(2H)-one] | 3000 nM | 6.9 nM | –
10 | Cc1cc(OCCCc2c3n(c4c(-c5c(C)nn(C)c5C)c(Cl)ccc24)[C@H](C)CN(c2cn(C)c4ccc(C(=O)NO)cc24)C3=O)cc(C)c1Cl [Example 361, (R)-3-(7-Chloro-10-(3-(4-chloro-3,5-dimethylphenoxy)propyl)-4-methyl-1-oxo-6-(1,3,5-trimethyl-1H-pyrazol-4-yl)-3,4-dihydropyrazino[1,2-a]indol-2(1H)-yl)-N-hydroxy-1-methyl-1H-indole-5-carboxamide] | 290 nM | 2 nM | –
11 | Cc1cc(OCCCc2c3n(c4c(-c5c(C)nn(C)c5C)c(Cl)ccc24)[C@H](C)CN(c2ccc(C(=O)O)c4ccn(C)c24)C3=O)cc(C)c1Cl [Example 52, (R)-7-(7-chloro-10-(3-(4-chloro-3,5-dimethylphenoxy)propyl)-4-methyl-1-oxo-6-(1,3,5-trimethyl-1H-pyrazol-4-yl)-3,4-dihydropyrazino[1,2-a]indol-2(1H)-yl)-1-methyl-1H-indole-4-carboxylic acid] | 470 nM | < 1 nM | –
12 | Cc1cc(OCCCc2c3n(c4c(-c5c(C)nn(C)c5C)c(Cl)ccc24)[C@H](C)CN(c2cn(C)c4ccc(-c5ncn(C)n5)cc24)C3=O)cc(C)c1Cl [Example 403, (R)-7-Chloro-10-(3-(4-chloro-3,5-dimethylphenoxy)propyl)-4-methyl-2-(1-methyl-5-(1-methyl-1H-1,2,4-triazol-3-yl)-1H-indol-3-yl)-6-(1,3,5-trimethyl-1H-pyrazol-4-yl)-3,4-dihydropyrazino[1,2-a]indol-1(2H)-one] | < 200 nM | 1.5 nM | –
13 | Cc1cc(OCCCc2c3n(c4c(-c5c(C)nn(C)c5C)c(Cl)ccc24)CCCN(c2cc(C(=O)O)c4cn(CCN5CCOCC5)nc4c2)C3=O)cc(C)c1Cl [Example 12, 6-[8-Chloro-11-[3-(4-chloro-3,5-dimethyl-phenoxy)propyl]-1-oxo-7-(1,3,5-trimethylpyrazol-4-yl)-4,5-dihydro-3H-[1,4]diazepino[1,2-a]indol-2-yl]-2-(2-morpholinoethyl)indazole-4-carboxylic acid] | 8300 nM | 1.2 nM | –
14 | Cc1cc(OCCCc2c3n(c4c(-c5c(C)nn(C)c5C)c(Cl)ccc24)[C@H](C)CN(c2cccc4c2C(=O)CC4)C3=O)cc(C)c1Cl [Example 195, (R)-7-Chloro-10-(3-(4-chloro-3,5-dimethylphenoxy)propyl)-4-methyl-2-(3-oxo-2,3-dihydro-1H-inden-4-yl)-6-(1,3,5-trimethyl-1H-pyrazol-4-yl)-3,4-dihydropyrazino[1,2-a]indol-1(2H)-one] | 1800 nM | 3.6 nM | –
15 | CC[C@@H]1Cn2c(c(CCCOc3cc(C)c(Cl)c(C)c3)c3ccc(Cl)c(-c4c(C)nn(C)c4C)c32)C(=O)N1c1cccc(C(=O)O)c1 [Example 21, (R)-3-(7-chloro-10-(3-(4-chloro-3,5-dimethylphenoxy)propyl)-3-ethyl-t-oxo-6-(1,3,5-trimethyl-1H-pyrazol-4-yl)-3,4-dihydropyrazino[1,2-a]indol-2(1H)-yl)benzoic acid] | – | 2.3 nM | 4900 nM
16 | Cc1cc(OCCCc2c3n(c4c(-c5c(C)nn(C)c5C)c(Cl)ccc24)[C@H](C)CN(c2cn(C)c4ccc(C(=O)NCc5ccncc5)cc24)C3=O)cc(C)c1Cl [Example 284, 3-[(4R)-7-chloro-10-[3-(4-chloro-3,5-dimethyl-phenoxy)propyl]-4-methyl-1-oxo-6-(1,3,5-trimethylpyrazol-4-yl)-3,4-dihydropyrazino[1,2-a]indol-2-yl]-1-methyl-N-(4-pyridylmethyl)indole-5-carboxamide] | 1500 nM | 3.6 nM | –
17 | Cc1cc(OCCCc2c3n(c4c(-c5c(C)nn(C)c5C)c(Cl)ccc24)[C@H](C)CN(c2ccnc4ccc(-c5nn[nH]n5)cc24)C3=O)cc(C)c1Cl [Example 414, (R)-2-(6-(2H-Tetrazol-5-yl)quinolin-4-yl)-7-chloro-10-(3-(4-chloro-3,5-dimethylphenoxy)propyl)-4-methyl-6-(1,3,5-trimethyl-1H-pyrazol-4-yl)-3,4-dihydropyrazino[1,2-a]indol-1(2H)-one] | 1400 nM | < 1 nM | –
18 | Cc1cc(OCCCc2c3n(c4c(-c5c(C)nc(COCc6ccccc6)nc5C)c(Cl)ccc24)CCCN(c2cn(C)c4ccc(C(=O)O)cc24)C3=O)cc(C)c1Cl [Example 294, 3-[7-[2-(benzyloxymethyl)-4,6-dimethyl-pyrimidin-5-yl]-8-chloro-11-[3-(4-chloro-3,5-dimethyl-phenoxy)propyl]-1-oxo-4,5-dihydro-3H-[1,4]diazepino[1,2-a]indol-2-yl]-1-methyl-indole-5-carboxylic acid] | 2000 nM | < 1 nM | –
19 | CC[C@@H]1Cn2c(c(CCCOc3cc(C)c(Cl)c(C)c3)c3ccc(Cl)c(-c4c(C)nn(C)c4C)c32)C(=O)N1Cc1ccc(C(=O)O)cn1 [Example 20, (R)-6-((7-chloro-10-(3-(4-chloro-3,5-dimethylphenoxy)propyl)-3-ethyl-1-oxo-6-(1,3,5-trimethyl-1H-pyrazol-4-yl)-3,4-dihydropyrazino[1,2-a]indol-2(1H)-yl)methyl)nicotinic acid] | 6500 nM | 2.5 nM | –
